The source of these data is PubChem BioAssay (NCI).

Test systems include 786-0 renal; K-562 leukemia; EKVX NSCLC; DU-145 prostate; TK-10 renal; A498 renal; UACC-62 melanoma; BT-549 breast; NCI/ADR-RES ovarian; OVCAR-4 ovarian.
Experiment in all cases: DTP human tumour cell line panel, 48 h

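The compound was tested at five concentrations on cells cultured in 96-well plates, with a 48-hour exposure period. At the GI50, growth is halved. At the TGI there is no net growth.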 Bounds are passed on as bounds.

Take `C[C@H]1[C@H](C)CC[C@]2(C(=O)NCCNCCN)CC[C@]3(C)C(=CC[C@@H]4[C@@]5(C)CCC(=O)C(C)(C)[C@@H]5CC[C@]43C)[C@H]12`: the GI50 is 1740 nM in the test with 786-0 renal; 2230 nM in the test on K-562 leukemia; 1.58 µM in the test with EKVX NSCLC; 1800 nM in the test on DU-145 prostate; 1840 nM in the test on TK-10 renal; 11.8 µM in the test on A498 renal. Further, the GI50 in the test with UACC-62 melanoma was 1600 nM; in the test on BT-549 breast, 6450 nM; with NCI/ADR-RES ovarian, 5160 nM; in the test on OVCAR-4 ovarian, 1930 nM. The TGI with 786-0 renal turned out to be 3.18 µM; in the test on K-562 leukemia, 5.35 µM; in the test with EKVX NSCLC, 3.02 µM; with DU-145 prostate it was 3.35 µM; in the test with TK-10 renal, 3.75 µM; in the test with A498 renal it was 27.2 µM. For the same compound, the TGI turned out to be 2.96 µM in the test with UACC-62 melanoma, 24.1 µM with BT-549 breast, 20 µM in the test with NCI/ADR-RES ovarian and 4 µM in the test on OVCAR-4 ovarian.
Consider `C=CCO/N=C/c1cc(NC(=S)c2ccoc2C)ccc1Cl`, for which the TGI in the test on 786-0 renal was > 100 µM; in the test with EKVX NSCLC it was 29.2 µM; in the test with DU-145 prostate it was 27.8 µM; in the test on TK-10 renal, 42.2 µM; in the test on A498 renal it was 58.6 µM; in the test on UACC-62 melanoma, 35.5 µM. For the same compound, the TGI in the test on BT-549 breast worked out at 34.7 µM; in the test with NCI/ADR-RES ovarian, 29 µM; in the test with OVCAR-4 ovarian, 20.6 µM.
For `CCCCCCCCCCCCCCCCCCNC(=O)[C@H]1CSC(c2cccs2)N1` (some centres undefined), the GI50 was 1130 nM in the test with 786-0 renal; 761 nM in the test on K-562 leukemia; 2910 nM in the test on DU-145 prostate; 1790 nM in the test with TK-10 renal; > 50 µM with A498 renal; 908 nM in the test on UACC-62 melanoma. Besides, the GI50 in the test with BT-549 breast is 983 nM; with NCI/ADR-RES ovarian it was 1060 nM; with OVCAR-4 ovarian, 1560 nM. The total growth inhibition concentration (TGI) in the test with 786-0 renal is 2.49 µM; in the test on K-562 leukemia, 2.14 µM; in the test on DU-145 prostate, > 50 µM; with TK-10 renal, > 50 µM; in the test with A498 renal, > 50 µM; with UACC-62 melanoma, 1.69 µM. The TGI with BT-549 breast was 1.89 µM; with NCI/ADR-RES ovarian, 2.31 µM; with OVCAR-4 ovarian it was > 50 µM.
On to `c1ccc(Cn2cnc3ccc(-c4nc(-c5ccc6c(c5)ncn6C5CCCCC5)cn5ccnc45)cc32)cc1`, for which the GI50 is 799 nM with 786-0 renal; 3040 nM in the test on DU-145 prostate; 3520 nM in the test on TK-10 renal; 1.86 µM with A498 renal; 1200 nM in the test with BT-549 breast; 1980 nM with NCI/ADR-RES ovarian. Also, the GI50 in the test on OVCAR-4 ovarian was 3060 nM. The total growth inhibition concentration (TGI) in the test on 786-0 renal is > 100 µM; with DU-145 prostate, 21 µM; in the test on TK-10 renal it was > 100 µM; in the test on A498 renal, 3.57 µM; in the test on BT-549 breast, 2.68 µM; in the test with NCI/ADR-RES ovarian, 5.43 µM. Moreover, the TGI in the test on OVCAR-4 ovarian was > 100 µM.
As for `C=C(CN1CCc2ccccc2C1)c1ccc(C(=O)Nc2ccccc2N)cc1`, the GI50 in the test on 786-0 renal is 1530 nM; with K-562 leukemia, 2320 nM; with EKVX NSCLC it was 5.68 µM; in the test on DU-145 prostate, 2450 nM; in the test with TK-10 renal, 5740 nM; in the test on UACC-62 melanoma, 821 nM. The GI50 was 1690 nM in the test with BT-549 breast, 1110 nM in the test with NCI/ADR-RES ovarian and 1920 nM in the test with OVCAR-4 ovarian. In addition, the TGI with 786-0 renal was 11.6 µM; with K-562 leukemia, > 11.3 µM; with EKVX NSCLC, > 50 µM; in the test with DU-145 prostate it was 15.7 µM; with TK-10 renal, 14.8 µM; with UACC-62 melanoma it was 3.3 µM. Moreover, the TGI in the test on BT-549 breast was 6.16 µM; in the test with NCI/ADR-RES ovarian, > 9.95 µM; with OVCAR-4 ovarian, 19.4 µM.
As for `CC(=O)N[C@H](C(=O)N[C@@H](CCCNC(=N)N)C(=O)N[C@@H](CCCCN)C(=O)N[C@@H](CCCNC(=N)N)C(=O)N[C@]1(C)CCCCCC/C=C\CCC[C@@](C)(C(=O)N[C@@H](CCCNC(=N)N)C(=O)N[C@@H](CCC(=O)O)C(=O)N[C@@H](CC(C)C)C(=O)N[C@H](C(=O)N[C@@H](CCC(=O)O)C(N)=O)C(C)C)NC(=O)[C@H](CCC(N)=O)NC(=O)[C@H](CC(C)C)NC(=O)[C@H](CC(C)C)NC(=O)[C@H](CCCNC(=N)N)NC(=O)[C@H](CCCNC(=N)N)NC(=O)[C@H](CC(C)C)NC1=O)C(C)C`, the GI50 with 786-0 renal is 1240 nM; with K-562 leukemia it was 5420 nM; with EKVX NSCLC, 1.75 µM; in the test with DU-145 prostate, 1870 nM; in the test with TK-10 renal, 1600 nM; with A498 renal, 9.32 µM. The GI50 was 1440 nM with BT-549 breast, 6820 nM in the test with NCI/ADR-RES ovarian and 1570 nM with OVCAR-4 ovarian. Further, the TGI with 786-0 renal was 2.91 µM; with K-562 leukemia, 21.6 µM; in the test with EKVX NSCLC, 23.2 µM; with DU-145 prostate, 7.44 µM; with TK-10 renal, 8.8 µM; with A498 renal, 22.4 µM. Besides, the TGI in the test on BT-549 breast was 4.35 µM; in the test on NCI/ADR-RES ovarian it was > 50 µM; with OVCAR-4 ovarian it was 8.02 µM.
For `Cc1ccc2c(c1)Sc1ccc(N=NN(C)C)cc1N2C`, the TGI in the test with 786-0 renal, in the test on EKVX NSCLC, in the test on DU-145 prostate, in the test on TK-10 renal, in the test on A498 renal and in the test on UACC-62 melanoma was > 100 µM each time. The TGI with BT-549 breast, in the test with NCI/ADR-RES ovarian and in the test with OVCAR-4 ovarian was > 100 µM each time.
For the compound `c1ccc2nc3c(cc4ccccn43)nc2c1`, the GI50 is 35700 nM in the test on 786-0 renal; > 100000 nM with K-562 leukemia; 18.9 µM in the test on EKVX NSCLC; > 100000 nM in the test on DU-145 prostate; 8360 nM with TK-10 renal; 31.4 µM in the test on A498 renal. The GI50 is 17400 nM in the test with UACC-62 melanoma, > 100000 nM in the test with BT-549 breast and > 100000 nM in the test with NCI/ADR-RES ovarian. For the same compound, the TGI is > 100 µM in the test with 786-0 renal; > 100 µM in the test with K-562 leukemia; > 100 µM in the test on EKVX NSCLC; > 100 µM in the test on DU-145 prostate; 55.1 µM in the test with TK-10 renal; > 100 µM in the test with A498 renal. The TGI in the test on UACC-62 melanoma, in the test with BT-549 breast and with NCI/ADR-RES ovarian was > 100 µM in each case.

Broadly, the GI50 is the concentration giving 50% growth inhibition. The TGI is the concentration at which net growth stops.
